# Source: patent publication US5292733A, “Cephalosporin compounds” (Lucky Limited, priority 1991, dated 1994)
# Columns and labels:
# Experiment in all cases: Antibacterial activity MIC, two-fold agar dilution
# Assay type in all cases: cell-based
# [1] = system: Streptococcus faecalis ATCC 29212; settings: Enterococcus faecalis, ATCC29212; Streptococcus faecalis ATCC 29212; Muller-Hinton agar, 37° C., 20 hours; read-out: Antibacterial Activity MIC
# Experimental: (§1) These MIC values were taken by employing a two-fold dilution method: that is, two-fold serial dilutions of each of the test compounds were made and dispersed in a Muller-Hinton agar medium; 2 μl of the standard test strain which had the 10^7 CFU(Colony Forming Unit) per ml was inoculated on the medium; and these were incubated at 37° C. for 20 hours. The results of the MIC tests are shown Table 1.
# [2] = system: Acinetobacter calcoaceticus ATCC 15473; settings: ATCC15473; Acinetobacter calcoaceticus ATCC 15473; Muller-Hinton agar, 37° C., 20 hours; read-out: Antibacterial Activity MIC
# Experimental: as §1
# [3] = system: Citrobacter freundii ATCC 8090; settings: ATCC8090; Citrobacter freundii ATCC 8090; Muller-Hinton agar, 37° C., 20 hours; read-out: Antibacterial Activity MIC
# Experimental: as §1
# [4] = system: Staphylococcus aureus ATCC 6538p; settings: ATCC6538P; Staphylococcus aureus ATCC 6538p; Muller-Hinton agar, 37° C., 20 hours; read-out: Antibacterial Activity MIC
# Experimental: as §1
# [5] = system: Pseudomonas aeruginosa ATCC 27853; settings: ATCC27853; Pseudomonas aeruginosa ATCC 27853; Muller-Hinton agar, 37° C., 20 hours; read-out: Antibacterial Activity MIC
# Experimental: as §1
# [6] = system: Proteus mirabilis ATCC 25933; settings: ATCC25933; Proteus mirabilis ATCC 25933; Muller-Hinton agar, 37° C., 20 hours; read-out: Antibacterial Activity MIC
# Experimental: as §1
# [7] = system: Serratia marcescens ATCC 27117; settings: ATCC27117; Serratia marcescens ATCC 27117; Muller-Hinton agar, 37° C., 20 hours; read-out: Antibacterial Activity MIC
# Experimental: as §1
# [8] = system: Providencia rettgeri ATCC 9250; settings: ATCC9250, Muller-Hinton agar, 37° C., 20 hours
# Experimental: as §1
# [9] = system: Staphylococcus aureus ATCC 10537; settings: ATCC10537; Staphylococcus aureus ATCC 10537; Muller-Hinton agar, 37° C., 20 hours; read-out: Antibacterial Activity MIC
# Experimental: as §1
# [10] = system: Micrococcus luteus ATCC 9341; settings: ATCC9341; Micrococcus luteus ATCC 9341; Muller-Hinton agar, 37° C., 20 hours; read-out: Antibacterial Activity MIC
# Experimental: as §1
# [11] = system: Shigella flexneri ATCC 11836; settings: ATCC11836, Muller-Hinton agar, 37° C., 20 hours
# Experimental: as §1
# [12] = system: Escherichia coli ATCC 10536; settings: ATCC10536, Muller-Hinton agar, 37° C., 20 hours
# Experimental: as §1
# [13] = system: Bacillus megaterium ATCC 9885; settings: Priestia megaterium, ATCC9885; Bacillus megaterium ATCC 9885; Muller-Hinton agar, 37° C., 20 hours; read-out: Antibacterial Activity MIC
# Experimental: as §1
# [14] = system: Staphylococcus epidermidis ATCC 12228; settings: ATCC12228; Staphylococcus epidermidis ATCC 12228; Muller-Hinton agar, 37° C., 20 hours; read-out: Antibacterial Activity MIC
# Experimental: as §1
# [15] = system: Pseudomonas aeruginosa ATCC 25619; settings: ATCC25619; Pseudomonas aeruginosa ATCC 25619; Muller-Hinton agar, 37° C., 20 hours; read-out: Antibacterial Activity MIC
# Experimental: as §1
# [16] = system: Klebsiella pneumoniae ATCC 10031; settings: ATCC10031; Klebsiella pneumoniae ATCC 10031; Muller-Hinton agar, 37° C., 20 hours; read-out: Antibacterial Activity MIC
# Experimental: as §1
# [17] = system: Enterobacter cloacae ATCC 27508; settings: ATCC27508; Enterobacter cloacae ATCC 27508; Muller-Hinton agar, 37° C., 20 hours; read-out: Antibacterial Activity MIC
# Experimental: as §1
# [18] = system: Proteus vulgaris ATCC 6059; settings: ATCC6059; Proteus vulgaris ATCC 6059; Muller-Hinton agar, 37° C., 20 hours; read-out: Antibacterial Activity MIC
# Experimental: as §1
# [19] = system: Enterobacter aerogenes ATCC 29751; settings: Klebsiella aerogenes, ATCC29751; Enterobacter aerogenes ATCC 29751; Muller-Hinton agar, 37° C., 20 hours; read-out: Antibacterial Activity MIC
# Experimental: as §1
# [20] = system: Salmonella typhimurium ATCC 14028; settings: Salmonella enterica; Salmonella typhimurium ATCC 14028; Muller-Hinton agar, 37° C., 20 hours; read-out: Antibacterial Activity MIC
# Experimental: as §1
# [21] = system: Morganella morganii ATCC 8076h; settings: ATCC8076H, Muller-Hinton agar, 37° C., 20 hours
# Experimental: as §1
# [22] = system: Escherichia coli ATCC 25922; settings: ATCC25922, Muller-Hinton agar, 37° C., 20 hours
# Experimental: as §1
# [23] = system: Bacillus cereus ATCC 11778; settings: ATCC11778; Bacillus cereus ATCC 11778; Muller-Hinton agar, 37° C., 20 hours; read-out: Antibacterial Activity MIC
# Experimental: as §1
# [24] = system: Pseudomonas aeruginosa ATCC 10145; settings: ATCC10145; Pseudomonas aeruginosa ATCC 10145; Muller-Hinton agar, 37° C., 20 hours; read-out: Antibacterial Activity MIC
# Experimental: as §1
# [25] = system: Shigella sonnei ATCC 11060; settings: ATCC11060, Muller-Hinton agar, 37° C., 20 hours
# Experimental: as §1
Compound,MIC [1] [mg/L],MIC [2] [mg/L],MIC [3] [mg/L],MIC [4] [mg/L],MIC [5] [mg/L],MIC [6] [mg/L],MIC [7] [mg/L],MIC [8] [mg/L],MIC [9] [mg/L],MIC [10] [mg/L],MIC [11] [mg/L],MIC [12] [mg/L],MIC [13] [mg/L],MIC [14] [mg/L],MIC [15] [mg/L],MIC [16] [mg/L],MIC [17] [mg/L],MIC [18] [mg/L],MIC [19] [mg/L],MIC [20] [mg/L],also measured
"CC[n+]1c(SCC2=C(C(=O)[O-])N3C(=O)[C@@H](NC(=O)/C(=N\OC(C)C(=O)O)c4csc(N)n4)[C@H]3SC2)cc(N)nc1N (stereo partly drawn) [Compound I-4, (6R,7R)-7-[(Z)-2-(2-aminothiazol-4-yl)-2-(R,S-carboxyeth-1-oxyimino)acetamido]-3-(2,6-diamino-3-ethylpyrimidinium-4-yl)thiomethyl-3-cephem-4-carboxylate]",> 128,4,0.13,8,2,0.31,0.13,≤ 0.008,4,0.5,0.031,0.13,0.25,1,1,0.031,0.016,0.063,1,0.5,MIC [21]: ≤ 0.008 mg/L; MIC [22]: 0.13 mg/L; MIC [23]: 64 mg/L; MIC [24]: 2 mg/L; MIC [25]: 0.25 mg/L
"CCO/N=C(\C(=O)N[C@@H]1C(=O)N2C(C(=O)[O-])=C(CSc3cc(N)nc(N)[n+]3C)CS[C@H]12)c1nsc(N)n1 [Compound I-5, (6R,7R)-7-[(Z)-2-(5-amino-1,2,4-thiadiazol-3-yl)-2-(ethoxyimino)acetamido]-3-(2,6-diamino-3-methylpyrimidinium-4-yl)thiomethyl-3-cephem-4-carboxylate]",> 128,8,0.25,2,16,0.061,0.5,≤ 0.008,1,0.031,0.063,0.13,0.13,0.5,2,0.016,0.016,0.031,0.5,0.5,MIC [21]: ≤ 0.008 mg/L; MIC [22]: 0.13 mg/L; MIC [23]: 64 mg/L; MIC [24]: 32 mg/L; MIC [25]: 0.25 mg/L
"CCO/N=C(\C(=O)N[C@@H]1C(=O)N2C(C(=O)[O-])=C(CSc3cc(N)nc(N)[n+]3CC)CS[C@H]12)c1nsc(N)n1 [Compound I-6, (6R,7R)-7-[(Z)-2-(5-amino-1,2,4-thiadiazol-3-yl)-2-(ethoxyimino)acetamido]-3-(2,6-diamino-3-ethylpyrimidinium-4-yl)thiomethyl-3-cephem-4-carboxylate]",> 128,8,0.13,1,16,0.016,0.25,≤ 0.008,1,0.063,0.063,0.13,0.13,0.5,2,0.031,0.063,0.031,0.5,0.5,MIC [21]: ≤ 0.008 mg/L; MIC [22]: 0.13 mg/L; MIC [23]: 64 mg/L; MIC [24]: 16 mg/L; MIC [25]: 0.25 mg/L
